Laboratory results from patent US20250304952A1, “DNA ELEMENT RESPONSIVE TO EXTRACHROMOSOMAL DNA IN CANCER CELLS” (The Board of Trustees of the Leland Stanford Junior …, priority 2021, published 2025).

Legend:
ecDNA hubs in COLO320-DM = experiment: ecDNA clustering by interphase DNA FISH, autocorrelation g(r); assay type: cell-based, human; settings: 500 nM, 6 hours
Source text: The Oligopaint FISH probe libraries were constructed as described previously 51 Each oligo consists of a 40 nucleotide (nt) homology to the hg19 genome assemble designed from the algorithm developed from the laboratory of Dr. Ting Wu (https://oligopaints.hms.harvard.edu/). Each library subpool consists of a unique sets of primer pairs for orthogonal PCR amplification and a 20 nt T7 promoter sequence for in vitro transcription and a 20 nt region for reverse transcription. Individual Oligopaint probes were generated by PCR amplification, in vitro transcription, and reverse transcription, in which ssDNA oligos conjugated with ATTO488 and ATTO647 fluorophores were introduced during the reverse transcription step. The Oligopaint covered genomic regions (hg19) used in this study are as follows: chr8: 116967673-118566852 (hg19_COLO_nonecDNA_1.5Mbp), chr8: 127435083-129017969 (hg19_COLO_ecDNA_1.5Mbp), chr8: 128729248-128831223 (hg19_PC3_ecDNA1_100 kb). A ssDNA oligo pool was ordered and synthesized from Twist Bioscience (San Francisco, CA). 15 mm #1.5 round glass coverslips (Electron Microscopy Sciences) were pre-rinsed with anhydrous ethanol for 5 min, air dried, and coated with L-poly lysine solution (100 μg/mL) for at least 2 hours. Fully dissociated ColoDM320 or PC3 cells were seeded onto the coverslips and recovered for at least 6 hours before experiments. Cells were fixed with 4% (v/v) methanol free paraformaldehyde diluted in 1×PBS at room temperature for 10 min. Then cells were washed 2× with 1×PBS and permeabilized in 0.5% Triton-X100 in 1×PBS for 30 min. After 2× wash in 1×PBS, cells were treated with 0.1M HCl for 5 min, followed by 3× washes with 2×SSC and 30 min incubation in 2×SSC+0.1% Tween20 (2×SSCT)+50% (v/v) formamide (EMD Millipore, cat #S4117). […]
To analyze the clustering of ecDNAs, we applied the autocorrelation function as described previously58 in Matlab (2019). g(r) estimates the probability of detecting another ecDNA signal at increasing distances from the viewpoint of an index ecDNA signal and is equal to 1 for a uniform, random distribution. Specifically, the pair auto-correlation function g(r^→) was calculated by the fast Fourier transform (FFT) method described by the equations below.
N(r^→) is the auto-correlation of a mask matrix that has the value of 1 inside the nucleus used for normalization. […] Autocorrelation functions were calculated first by converting the Cartesian coordinates to polar coordinates by Matlab cart2pol( ) function, binning by radius and by averaging within the assigned bins. […]

[1] = tested on: ecDNA hubs in TetO-GFP COLO320-DM cells; experiment: Live cell imaging of TetR-eGFP-labeled ecDNAs through cell division; assay type: cell-based, human; settings: 500 nM JQ1
Source text: sgRNA was designed by E-CRISP (http://www.e-crisp.org/E-CRISP/designcrispr.html) targeting ˜0.5 kb upstream of MYC transcription start site or N-terminal BRD4 gene. The sgRNA was cloned into the modified pX330 (Addgene, Cat #42230) construct co-expressing wild type SpCas9 and a PGK-Venus cassette. ˜500 bp homology arms were PCR amplified from COLO320-DM cells and cloned into a pUC19 donor vector together with ˜96 copies of TetO array and a blasticidin selection cassette
(Addgene #118713) for ecDNA-TetO array or with HaloTag (Addgene #139747) for BRD4. 2 μg of the donor vector and 1 μg of the sgRNA vector were transfected into COLO320-DM cells by lipofectamine 3000. For ecDNA-TetO array, blasticidin (10 ug/ml) selection was applied after 7 days. For BRD4-HaloTag knock-in, 100 nM HaloTag ligand JF549 (a kind gift from Luke Lavis's lab at Janelia Research Campus) was applied to the cells followed by washing and FACS sorting. Individual clones were selected, genotyped by PCR and verified by Sanger sequencing before being tested for imaging. […]
To monitor ecDNA dynamics within the nucleus, the COLO320-DM TetO-eGFP cell line was transfected with the PiggyBac vector expressing H2B-SNAPf and the super PiggyBac transposase (2:1 ratio) as described previously51. […] TetO labeled ecDNA was similarly analyzed as described in previous DNA/RNA FISH section. […]

Compound: Cc1sc2c(c1C)C(c1ccc(Cl)cc1)=N[C@@H](CC(=O)OC(C)(C)C)c1nnc(C)n1-2 [JQ1]
- ecDNA hub clustering (interphase DNA FISH, autocorrelation g(r)) (ecDNA hubs in COLO320-DM): dispersed ecDNA hubs
- ecDNA hub assembly following mitosis [1]: blocked
